ChEMBL document CHEMBL1141727, “Isolation and cytotoxic evaluation of marine sponge-derived norterpene peroxides” (J Nat Prod, 1998)

Experiments:
Assay type in all cases: functional
NCI-H522 = assay: Growth inhibition of human NCI-H522 cells
MDA-MB-231 = assay: Growth inhibition of human MDA-MB-231 cells
SK-MEL-28 = assay: Growth inhibition of human SK-MEL-28 cells
SNB-75 = assay: Growth inhibition of human SNB75 cells
HT-29 = assay: Growth inhibition of human HT-29 cells
SK-MEL-2 = assay: Growth inhibition of human SK-MEL-2 cells
OVCAR-8 = assay: Growth inhibition of human OVCAR8 cells
OVCAR-3 = assay: Growth inhibition of human OVCAR-3 cells
MDA-MB-435 = assay: Growth inhibition of human MDA-MB-435 cells
CCRF-CEM = assay: Growth inhibition of human CCRF-CEM cells
L1210 = assay: Growth inhibition of mouse L1210 cells assessed as zone units at 50 ug/disk by disk diffusion agar colony formation assay
MOLT-4 = assay: Growth inhibition of human MOLT4 cells
[1] = Growth inhibition of mouse M17/ADR cells assessed as zone units at 50 ug/disk by disk diffusion agar colony formation assay
U-251 = assay: Growth inhibition of human U251 cells
HL-60(TB) = assay: Growth inhibition of human HL-60(TB) cells
EKVX = assay: Growth inhibition of human EKVX cells
K562 = assay: Growth inhibition of human K562 cells
Malme-3M = assay: Growth inhibition of human MALME-3M cells
P388 = assay: Growth inhibition of mouse P388 cells assessed as zone units at 50 ug/disk by disk diffusion agar colony formation assay
KM12 = assay: Growth inhibition of human KM12 cells
SR = assay: Growth inhibition of human SR cells
[2] = Growth inhibition of human Hs 578T cells
[3] = Growth inhibition of human […] cells
HOP-62 = assay: Growth inhibition of human HOP62 cells
[4] = Growth inhibition of human MCF7/ADR resistant cells; conditions: NCI/ADR-RES
PO3 = assay: Growth inhibition of mouse PO3 cells assessed as zone units at 50 ug/disk by disk diffusion agar colony formation assay
IGROV-1 = assay: Growth inhibition of human IGROV1 cells
SF-268 = assay: Growth inhibition of human SF268 cells
A498 = assay: Growth inhibition of human A498 cells
HOP-92 = assay: Growth inhibition of human HOP92 cells
NCI-H322M = assay: Growth inhibition of human NCI-H322M cells
T47D = assay: Growth inhibition of human T47D cells
SK-MEL-5 = assay: Growth inhibition of human SK-MEL-5 cells
HCC 2998 = assay: Growth inhibition of human HCC2998 cells
A549 = assay: Growth inhibition of human A549 cells
MCF7 = assay: Growth inhibition of human MCF7 cells
UACC-62 = assay: Growth inhibition of human UACC62 cells
COLO 205 = assay: Growth inhibition of human COLO205 cells
SF-539 = assay: Growth inhibition of human SF539 cells
SN12C = assay: Growth inhibition of human SN12C cells
NCI-H460 = assay: Growth inhibition of human NCI-H460 cells
786-0 = assay: Growth inhibition of human 786-0 cells
ACHN = assay: Growth inhibition of human ACHN cells
NCI-H23 = assay: Growth inhibition of human NCI-H23 cells
BT-549 = assay: Growth inhibition of human BT549 cells
CAKI-1 = assay: Growth inhibition of human Caki1 cells
NCI-H226 = assay: Growth inhibition of human NCI-H226 cells
OVCAR-4 = assay: Growth inhibition of human OVCAR4 cells
OVCAR-5 = assay: Growth inhibition of human OVCAR5 cells
UO-31 = assay: Growth inhibition of human UO31 cells
HCT-15 = assay: Growth inhibition of human HCT15 cells
SF-295 = assay: Growth inhibition of human SF295 cells
DU-145 = assay: Growth inhibition of human DU145 cells
[5] = Growth inhibition of human H116 cells assessed as zone units at 50 ug/disk by disk diffusion agar colony formation assay
M14 = assay: Growth inhibition of human M14 cells
SW-620 = assay: Growth inhibition of human SW620 cells
UACC-257 = assay: Growth inhibition of human UACC257 cells
SK-OV-3 = assay: Growth inhibition of human SKOV3 cells
HCT-116 = assay: Growth inhibition of human HCT116 cells
RXF 393 = assay: Growth inhibition of human […] cells
MDA-N = assay: Growth inhibition of human MDA-N cells
MC-38 = assay: Growth inhibition of mouse C38 cells assessed as zone units at 50 ug/disk by disk diffusion agar colony formation assay
PC-3 = assay: Growth inhibition of human PC3 cells
TK-10 = assay: Growth inhibition of human TK10 cells
LOX IMVI = assay: Growth inhibition of human LOXIMVI cells
SNB-19 = assay: Growth inhibition of human SNB19 cells
CX-1 = assay: Growth inhibition of human CX-1 cells assessed as zone units at 50 ug/disk by disk diffusion agar colony formation assay

CC1=C(CC/C(C)=C/CC[C@@]2(C)CC[C@@H]([C@H](C)C(=O)O)OO2)C(C)(C)CCC1 [EPIMUQUBILIN A]
GI50 (NCI-H522): 13.8 µM | GI50 (MDA-MB-231): > 100 µM | GI50 (SK-MEL-28): > 100 µM | GI50 (SNB-75): > 100 µM | GI50 (HT-29): > 100 µM | GI50 (SK-MEL-2): > 100 µM | GI50 (OVCAR-8): > 100 µM | GI50 (OVCAR-3): > 100 µM | GI50 (MDA-MB-435): > 100 µM | GI50 (CCRF-CEM): 61.7 µM | Activity (L1210): 50 Zone units | GI50 (MOLT-4): 42.6 µM | Activity [1]: 70 Zone units | GI50 (U-251): > 100 µM | GI50 (HL-60(TB)): 47.8 µM | GI50 (EKVX): > 100 µM | GI50 (K562): > 100 µM | GI50 (Malme-3M): > 100 µM | Activity (P388): 50 Zone units | GI50 (KM12): > 100 µM | GI50 (SR): > 100 µM | GI50 [2]: > 100 µM | GI50 [3]: > 100 µM | GI50 (HOP-62): > 100 µM | GI50 [4]: > 100 µM | Activity (PO3): 0 Zone units | GI50 (IGROV-1): 43.6 µM | GI50 (SF-268): > 100 µM | GI50 (A498): > 100 µM | GI50 (HOP-92): > 100 µM

C=C1CCCC(C)(C)C1CC[C@]1(C)CC[C@@H]([C@@H](C)C(=O)O)OO1 (stereo partly drawn) [EPINUAPAPUIN B]
GI50 (NCI-H522): 2.06 µM | GI50 (MDA-MB-231): > 10 µM | GI50 (SK-MEL-28): > 10 µM | GI50 (NCI-H322M): > 10 µM | GI50 (SNB-75): > 10 µM | GI50 (T47D): > 10 µM | GI50 (HT-29): > 10 µM | GI50 (SK-MEL-5): > 10 µM | GI50 (SK-MEL-2): > 10 µM | GI50 (OVCAR-8): > 10 µM | GI50 (OVCAR-3): > 10 µM | GI50 (HCC 2998): > 10 µM | GI50 (A549): > 10 µM | GI50 (MDA-MB-435): > 10 µM | GI50 (MCF7): > 10 µM | GI50 (UACC-62): > 10 µM | GI50 (COLO 205): > 10 µM | GI50 (SF-539): > 10 µM | GI50 (CCRF-CEM): 2.27 µM | GI50 (SN12C): > 10 µM | GI50 (NCI-H460): > 10 µM | Activity (L1210): 160 Zone units | GI50 (MOLT-4): 7.43 µM | Activity [1]: 210 Zone units | GI50 (786-0): > 10 µM | GI50 (U-251): > 10 µM | GI50 (ACHN): > 10 µM | GI50 (HL-60(TB)): 2.06 µM | GI50 (EKVX): > 10 µM | GI50 (NCI-H23): > 10 µM | GI50 (Malme-3M): 3.96 µM | GI50 (BT-549): > 10 µM | GI50 (CAKI-1): > 10 µM | Activity (P388): 160 Zone units | GI50 (KM12): 5.73 µM | GI50 (NCI-H226): > 10 µM | GI50 (OVCAR-4): > 10 µM | GI50 (SR): 2.72 µM | GI50 (OVCAR-5): > 10 µM | GI50 (UO-31): > 10 µM | GI50 [2]: > 10 µM | GI50 (HCT-15): > 10 µM | GI50 (SF-295): > 10 µM | GI50 [3]: > 10 µM | GI50 (DU-145): > 10 µM | Activity [5]: 70 Zone units | GI50 (M14): > 10 µM | GI50 (SW-620): > 10 µM | GI50 (HOP-62): 9.54 µM | GI50 [4]: > 10 µM | Activity (PO3): 60 Zone units | GI50 (UACC-257): > 10 µM | GI50 (SK-OV-3): > 10 µM | GI50 (IGROV-1): 1.73 µM | GI50 (HCT-116): > 10 µM | GI50 (RXF 393): > 10 µM | GI50 (MDA-N): > 10 µM | GI50 (A498): > 10 µM | GI50 (HOP-92): 6.63 µM

C=C1CCCC(C)(C)C1CCC1(C)CC[C@H]([C@@H](C)C(=O)O)OO1 (single isomer, unassigned) [NAPAPUIN B]
Activity (MC-38): 300 Zone units | GI50 (NCI-H522): 1.21 µM | GI50 (MDA-MB-231): 7.44 µM | GI50 (PC-3): > 12.5 µM | GI50 (SK-MEL-28): > 12.5 µM | GI50 (NCI-H322M): 12.5 µM | GI50 (SNB-75): 3.39 µM | GI50 (T47D): 3.35 µM | GI50 (HT-29): 9.26 µM | GI50 (SK-MEL-5): 6.14 µM | GI50 (SK-MEL-2): 5.06 µM | GI50 (OVCAR-8): > 12.5 µM | GI50 (OVCAR-3): 2.49 µM | GI50 (HCC 2998): 6.78 µM | GI50 (A549): 3.05 µM | GI50 (MDA-MB-435): 2.69 µM | GI50 (MCF7): > 12.5 µM | GI50 (UACC-62): 9.24 µM | GI50 (COLO 205): 8.31 µM | GI50 (SF-539): 3.28 µM | GI50 (CCRF-CEM): 1.76 µM | GI50 (SN12C): 11.3 µM | GI50 (NCI-H460): 1.83 µM | Activity (L1210): 230 Zone units | GI50 (MOLT-4): 2.16 µM | Activity [1]: 330 Zone units | GI50 (786-0): 0.94 µM | GI50 (U-251): 4.33 µM | GI50 (ACHN): 7.83 µM | GI50 (HL-60(TB)): 1.63 µM | GI50 (EKVX): 3.19 µM | GI50 (K562): 3.3 µM | GI50 (NCI-H23): 7.61 µM | GI50 (Malme-3M): > 12.5 µM | GI50 (BT-549): 1.05 µM | GI50 (CAKI-1): 2 µM | Activity (P388): 230 Zone units | GI50 (KM12): 4.82 µM | GI50 (NCI-H226): 12.5 µM | GI50 (OVCAR-4): 2.4 µM | GI50 (TK-10): 4.06 µM | GI50 (SR): 1.8 µM | GI50 (OVCAR-5): > 12.5 µM | GI50 (UO-31): 4.31 µM | GI50 [2]: 8.74 µM | GI50 (HCT-15): 10.7 µM | GI50 (SF-295): 5.44 µM | GI50 (LOX IMVI): 0.25 µM | GI50 [3]: 3.91 µM | GI50 (DU-145): 2.71 µM | GI50 (M14): 12.2 µM | GI50 (SW-620): 7.23 µM | GI50 (HOP-62): 2.11 µM | GI50 [4]: 8.78 µM | GI50 (UACC-257): > 12.5 µM | GI50 (SK-OV-3): 9.24 µM | GI50 (IGROV-1): 0.63 µM | GI50 (SNB-19): > 12.5 µM | GI50 (HCT-116): 5.19 µM | Activity (CX-1): 200 Zone units | GI50 (RXF 393): 5.04 µM | GI50 (MDA-N): 3.52 µM | GI50 (A498): > 12.5 µM | GI50 (HOP-92): 2.23 µM
